From patent US20250144227A1, “C-16 MODIFIED TRIOXACARCINS, ANTIBODY DRUG CONJUGATES, AND USES THEREOF” (President and Fellows of Harvard College, priority 2021, published 2025) come the findings set out here.

This assay deals with H460 cells. Put plainly: Cell proliferation assay (resazurin, CellTiter-Blue), H460 cells. Format: cell-based. The conditions noted are these: for GI50: Homo sapiens; for Effect of the C16 modification on potency (in words): comment on the data of Table 2 (H460 cells). As for the experimental part: Cell Culture: All cell-culture work was conducted in a class II biological safety cabinet. H460 cells (P2-P4, American Type Culture Collection) were maintained in RPMI-1640 medium supplemented with 10% fetal bovine serum (FBS). HL-60 cells (P2-P4, American Type Cuture Collection) were maintained in RPMI-1640 medium supplemented with 10% FBS. MES-SA/Dx-5 cells (P2-P4, European Collection of Authenticated Cell Cultures) were maintained in McCoy's 5A medium supplemented with 10% FBS.
Cell Proliferation Assay: H460 and MES-SA/Dx-5 cells were grown to approximately 80% confluence, and then were trpysinized, collected, and pelleted by centrifugation (10 min at 183 x g, 24° C.), and HL-60 cells were grown to confluence and directly pelleted by centrifugation (10 min at 183 × g, 24° C.). The supernatant was discarded and the cell pellet was resuspended in 10 mL of fresh medium. A sample was diluted 10-fold in fresh medium, and the concentration of cells was determined using a hemacytometer. The cell suspension was diluted to a concentration of 3000 cells/100 μL. The wells of a pre-sterilized 96-well plate were charged with 100 μL per well of the diluted cellular suspension. The plate was incubated for 24 h at 37° C. (5% CO2).
Stock solutions of each compound in DMSO were diluted with the appropriate media to 100 nM solutions (1% DMSO), which were then serially diluted with the appropriate media, and 100-uL aliquots of the resulting solutions were added to the wells containing adhered cells to achieve final concentrations of 0.39 nM to 50 nM. After incubating at 37° C. for 72 h (5% CO2), 20 μL of resazurin solution (Promega CellTiter-Blue® Cell Viability Assay) was added to each well. After incubating at 37° C. for 2.0 h (5% CO2), the fluorescence (544 nm excitation/590 nm emission) was recorded using a microplate reader (SpectraMax PLUS384) as a measure of viable cells.
Percent growth inhibition was calculated for each well, based upon the following formula: Percent growth inhibition=100×(S−B0)/(Bt−B0) where S is the sample fluorescence, Bt is the average fluorescence of an untreated population of cells at the completion of the assay, and B0 is the average fluorescence of an untreated population of cells at the beginning of the assay.
Each compound was assayed at eight separate concentrations per experiment. The percent inhibition at each concentration was plotted against log (concentration), and a curve fit was generated using the XLfit4 plugin (IDBS Software) running in Excel (Microsoft). GI50 values were computed to reflect the concentrations at which the resulting curves pass through 50% inhibition.

Where [1] appears, read: NCI-H460, H460 cells, 72 h incubation, read-out: GI50.

Read-outs that look alike come from different tables or passages of the source.

In turn, `C#CCOCC12OC3c4c(C)cc5c(OC)c6c(c(O)c5c4O[C@](OC)(C3O1)[C@@]21CO1)C(=O)CCC6` (stereo partly drawn) [compound 24, (2R,2′R,3a′R,13a′R)-12′-Hydroxy-7′,13a′-dimethoxy-5′-methyl-2′-((prop-2-yn-1-yloxy)methyl)-3a′,4′,8′,9′,10′,13a′-hexahydro-2′H,11′H-spiro[oxirane-2,1′-[2,4]epoxyfuro[3,2-b]naphtho[2.3-h]chromen]-11′-one] gave a GI50 (NCI-H460, 72 h) of 14 nM.
With `CCCOCC12OC3c4c(C)cc5c(OC)c6c(c(O)c5c4O[C@](OC)(C3O1)[C@@]21CO1)C(=O)CCC6` (stereo partly drawn) [compound 22, (2R,2′R,3a′R,13a′R)-12′-Hydroxy-7′,13a′-dimethoxy-5′-methyl-2′-(propoxymethyl)-3a′, 4′,8′,9′,10′,13a′-hexahydro-2′H,11′H-spiro[oxirane-2,1′-[2.4]epoxyfuro[3,2-b]naphtho[2,3-h]chromen]-11′-one], the GI50 under setting [1] was 22 nM.
Consider `COc1c2c(c(O)c3c4c(c(C)cc13)C1O[C@]3(CN=[N+]=[N-])O[C@H]1[C@@](OC)(O4)[C@@]31CO1)C(=O)CCC2` (stereo partly drawn) [compound 25, (2R,2′R,3a′R,13a′R)-2′-(Azidomethyl)-12′-hydroxy-7′,13a′-dimethoxy-5′-methyl-3a′, 4′,8′,9′,10′,13a′-hexahydro-2′H,11′H-spiro[oxirane-2,1′-[2,4]epoxyfuro[3,2-b]naphtho[2,3-h]chromen]-11′-one], for which the “Effect of the C16 modification on potency (in words)” value (“Effect of the C16 modification” for short) was “good tolerance”. This compound returned a GI50 (NCI-H460, 72 h) of 33 nM.
Turning to `COc1c2c(c(O)c3c4c(c(C)cc13)C1OC3(COCc5ccccc5)OC1[C@@](O)(O4)[C@@]31CO1)C(=O)CCC2` (stereo partly drawn) [compound 17, (2S,2′R,3a′R, 13a′R)-2′-((Benzyloxy)methyl)-12′, 13a′-dihydroxy-7′-methoxy-5′-methyl-3a′ 4′,8′,9′,10′,13a′-hexahydro-2′H,11′H-spiro [oxirane-2,1′-[2,4]epoxyfuro[3,2-b]naphtho[2,3-h]chromen]-11′-one], the GI50 under setting [1] is > 100 nM.
Consider `C=CCOCC12OC3c4c(C)cc5c(OC)c6c(c(O)c5c4O[C@](OC)(C3O1)[C@@]21CO1)C(=O)CCC6` (stereo partly drawn) [compound 23, (2R,2′R,3a′R,13a′R)-2′-((Allyloxy)methyl)-12′-hydroxy-7′,13a′-dimethoxy-5′-methyl-3a′,4′,8′,9′,10′,13a′-hexahydro-2′H, 11′H-spiro[oxirane-2,1′-[2,4]epoxyfuro[3,2-b]naphtho[2.3-h]chromen]-11′-one], for which the GI50 under setting [1] is 14 nM.
For `COc1c2c(c(O)c3c4c(c(C)cc13)[C@@H]1O[C@]3(COP(=O)(O)O)O[C@@H]1[C@@](OC)(O4)[C@@]31CO1)C(=O)CCC2` [compound 35, ((2R,2′R,3a'S,4'S,13a′R)-12′-hydroxy-7′,13a′-dimethoxy-5′-methyl-11′-oxo-3a′,8′,9′,10′,11′,13a′-hexahydro-2′H,4′H-spiro [oxirane-2,1′-[2,4]epoxyfuro[3,2-b]naphtho[2,3-h]chromen]-2′-yl)methyl dihydrogen phosphate], the “Effect of the C16 modification” value was “good tolerance”. This compound also had a GI50 (NCI-H460, 72 h) of 35 nM.
With `COc1c2c(c(O)c3c4c(c(C)cc13)C1O[C@]3(CN)O[C@H]1[C@@](OC)(O4)[C@@]31CO1)C(=O)CCC2` (stereo partly drawn) [compound 26, (2R,2′R,3a′R,13a′R)-2′-(Aminomethyl)-12′-hydroxy-7′,13a′-dimethoxy-5′-methyl-3a′, 4′,8′,9′,10′, 13a′-hexahydro-2′H, 11′H-spiro[oxirane-2,1′-[2,4]epoxyfuro[3,2-b]naphtho[2,3-h]chromen]-11′-one], the “Effect of the C16 modification” value is on record as “good tolerance”. In addition, under setting [1], the GI50 was 10 nM.
For `COc1c2c(c(O)c3c4c(c(C)cc13)C1O[C@]3(CO)O[C@H]1[C@@](OC)(O4)[C@@]3(O)CBr)C(=O)CCC2` (stereo partly drawn) [compound 21, (1R,2R,3aR,13aR)-1-(bromomethyl)-1,12-dihydroxy-2-(hydroxymethyl)-7,13a-dimethoxy-5-methyl-1,2,3a,4,8,9,10,13a-octahydro-11H-2,4-epoxyfuro[3,2-b]naphtho[2,3-h]chromen-11-one], the GI50 under setting [1] stood at 8 nM.
For the compound `COc1c2c(c(O)c3c4c(c(C)cc13)C1OC3(CO[C@@H]5O[C@H](COC(C)=O)[C@@H](OC(C)=O)[C@H](OC(C)=O)[C@H]5OC(C)=O)OC1[C@@](OC)(O4)[C@@]31CO1)C(=O)CCC2` (stereo partly drawn) [compound 28, (2R,3R,4S,5R,6R)-2-(Acetoxymethyl)-6-(((2R,13a′R)-12′-hydroxy-7′,13a′-dimethoxy-5′-methyl-11′-oxo-3a′,8′,9′,10′,11′,13a′-hexahydro-2′H,4′H-spiro [oxirane-2,1′-[2,4]epoxyfuro[3,2-b]naphtho[2,3-h]chromen]-2′-yl)methoxy) tetrahydro-2H-pyran-3,4,5-triyl triacetate], the “Effect of the C16 modification” value is recorded as “poorly tolerated”. Besides, the GI50 (NCI-H460, 72 h) is > 100 nM.
For the compound `COc1c2c(c(O)c3c4c(c(C)cc13)C1OC3(COCC5OC(CO)C(O)C(O)C5O)OC1[C@@](OC)(O4)[C@@]31CO1)C(=O)CCC2` (stereo partly drawn) [compound 29, (2R,13a′R)-12′-Hydroxy-7′,13a′-dimethoxy-5′-methyl-2′-((((2R,3R,4S,5S,6R)-3,4,5-trihydroxy-6-(hydroxymethyl)tetrahydro-2H-pyran-2-yl)oxy)methyl)-3a′ 4′,8′,9′, 10′,13a′-hexahydro-2′H. 11′H-spiro [oxirane-2,1′-[2,4]epoxyfuro[3,2-b]naphtho[2,3-h]chromen]-11′-one], the “Effect of the C16 modification” value is “poorly tolerated”.
On to `COc1c2c(c(O)c3c4c(c(C)cc13)C1O[C@]3(COCc5ccccc5)O[C@H]1[C@@](OC)(O4)[C@@]31CO1)C(=O)CCC2` (stereo partly drawn) [compound 18, (2R,2′R,3a′R, 13a′R)-2′-((Benzyloxy)methyl)-12′-hydroxy-7′,13a′-dimethoxy-5′-methyl-3a′,4′,8′,9′,10′,13a′-hexahydro-2′H, 11′H-spiro [oxirane-2,1′-[2,4]epoxyfuro[3,2-b]naphtho[2,3-h]chromen]-11′-one], for which the GI50 under setting [1] is > 100 nM.
In the case of `COc1c2c(c(O)c3c4c(c(C)cc13)C1OC3(COC5CC(C)(O)C(OC(C)=O)C(C)O5)OC1[C@@](OC)(O4)[C@@]31CO1)C(=O)CCC2` (stereo partly drawn) [compound 30, (25,3S,4R,6S)-4-Hydroxy-6-(((2R,13a′R)-12′-hydroxy-7′,13a′-dimethoxy-5′-methyl-11′-oxo-3a′,8′,9′,10′,11′,13a′-hexahydro-2′H,4′H-spiro [oxirane-2,1′-[2,4]epoxyfuro[3,2-b]naphtho[2,3-h]chromen]-2′-yl)methoxy)-2,4-dimethyltetrahydro-2H-pyran-3-yl acetate], the “Effect of the C16 modification” value was “well tolerated”. For the setting “NCI-H460, 72 h”, this compound showed a GI50 of 20 nM.
For the compound `COc1c2c(c(O)c3c4c(c(C)cc13)C1OC3(CSC(C)=O)OC1[C@@](OC)(O4)[C@@]31CO1)C(=O)CCC2` (stereo partly drawn) [compound 33, S-(((25,2'S,3a′R,13a′R)-12′-hydroxy-7′,13a′-dimethoxy-5′-methyl-11′-oxo-3a′,8′,9′,10′,11′,13a′-hexahydro-2′H,4′H-spiro [oxirane-2,1′-[2,4]epoxyfuro[3,2-b]naphtho[2,3-h]chromen]-2′-yl)methyl)ethanethioate], the “Effect of the C16 modification” value is recorded as “lack of activity”. Also, growth (NCI-H460, 72 h) was halved (GI50) at 100 nM.
On to `COc1c2c(c(O)c3c4c(c(C)cc13)C1OC3(CBr)OC1[C@@](OC)(O4)[C@@]31CO1)C(=O)CCC2` (stereo partly drawn) [compound 32, (2S,2′S,3a′R,13a′R)-2′-(Bromomethyl)-12′-hydroxy-7′,13a′-dimethoxy-5′-methyl-3a′,4′,8′9′,10′,13a′-hexahydro-2′H,11′H-spiro [oxirane-2,1′-[2,4]epoxyfuro[3,2-b]naphtho[2,3-h]chromen]-11′-one], for which the “Effect of the C16 modification” value is on record as “good tolerance”. Further, the GI50 under setting [1] worked out at 20 nM.
In the case of `COc1c2c(c(O)c3c4c(c(C)cc13)C1OC3(CO)OC1[C@@](O)(O4)[C@@]31CO1)C(=O)CCC2` (stereo partly drawn) [compound 20, (25,2′R,3a′R, 13a′R)-12′, 13a′-dihydroxy-2′-(hydroxymethyl)-7′-methoxy-5′-methyl-3a′, 4′,8′,9′,10′,13a′-hexahydro-2′H,11′H-spiro[oxirane-2,1′-[2.4]epoxyfuro[3,2-b]naphtho[2,3-h]chromen]-11′-one], the GI50 under setting [1] was determined as 15 nM.

One may read the GI50 as the concentration at which growth is held to half of that of the control.
